Source: PMC9122913 (Nature Communications, 2022)

Target: T1, Cyclin-dependent kinase 2 (CDK2) (Homo sapiens, UniProt P24941)
T1 construct: Full-length human CDK2, GST-N-terminal tagged fusion protein
Test: pulldown of purified GST-CDK2 with HHT-conjugated beads (free HHT competes in lysate pulldown); DARTS in HEK293 lysate; CDK2/Cyclin A2 kinase assay inhibited at […] HHT
Format: binding
Text: Thus, hydrogen-bonds with T47, R50 and R150 appear critical

For `COC(=O)C[C@](O)(CCCC(C)(C)O)C(=O)O[C@@H]1C(OC)=C[C@]23CCCN2CCc2cc4c(cc2[C@H]13)OCO4` [HHT, homoharringtonine], which “pulldown of purified GST-CDK2 with HHT-conjugated beads (free HHT competes in ly)” value is on record?
Its value is “interaction between HHT and CDK2-3As was abolished (Fig. 1G). Thus, hydrogen-bonds with T47, R50 and R150 appear critical”.
